Source: the NIST ThermoML archive (doi:10.1016/j.jct.2007.09.009)
± gives the expanded uncertainty stated by the source.

Experiments:
[1] = xn = mol fraction of the nth substance listed; details: 313.15 K, 101 kPa, Liquid, Direct dilatometry
[2] = 298.15 K; 101.33 kPa; Liquid; Pycnometric method
[3] = refractive index (Na D-line) (dimensionless); details: 298.15 K; 101.33 kPa; Liquid; Standard Abbe refractometry

CC(=O)N(C)C [N,N-dimethylethanamide] + CCO
excess molar volume ([1]; x1 = 0.0259): -3.74e-08 ± 3e-09 m3/mol
excess molar volume ([1]; x1 = 0.0456): -6.13e-08 ± 3.1e-09 m3/mol
excess molar volume ([1]; x1 = 0.0769): -9.86e-08 ± 3.1e-09 m3/mol
excess molar volume ([1]; x1 = 0.103): -1.237e-07 ± 3.1e-09 m3/mol
excess molar volume ([1]; x1 = 0.1481): -1.61e-07 ± 3.2e-09 m3/mol
excess molar volume ([1]; x1 = 0.1765): -1.787e-07 ± 3.2e-09 m3/mol
excess molar volume ([1]; x1 = 0.2149): -1.991e-07 ± 3.2e-09 m3/mol
excess molar volume ([1]; x1 = 0.2587): -2.157e-07 ± 3.2e-09 m3/mol
excess molar volume ([1]; x1 = 0.2846): -2.228e-07 ± 3.2e-09 m3/mol
excess molar volume ([1]; x1 = 0.3094): -2.282e-07 ± 3.2e-09 m3/mol
excess molar volume ([1]; x1 = 0.3288): -2.315e-07 ± 3.2e-09 m3/mol
excess molar volume ([1]; x1 = 0.3513): -2.338e-07 ± 3.2e-09 m3/mol
excess molar volume ([1]; x1 = 0.3784): -2.352e-07 ± 3.2e-09 m3/mol
excess molar volume ([1]; x1 = 0.3866): -2.374e-07 ± 3.2e-09 m3/mol
excess molar volume ([1]; x1 = 0.4014): -2.353e-07 ± 3.2e-09 m3/mol
excess molar volume ([1]; x1 = 0.4131): -2.373e-07 ± 3.2e-09 m3/mol
excess molar volume ([1]; x1 = 0.4396): -2.356e-07 ± 3.2e-09 m3/mol
excess molar volume ([1]; x1 = 0.4661): -2.327e-07 ± 3.2e-09 m3/mol
excess molar volume ([1]; x1 = 0.4937): -2.292e-07 ± 3.2e-09 m3/mol
excess molar volume ([1]; x1 = 0.5249): -2.227e-07 ± 3.2e-09 m3/mol
excess molar volume ([1]; x1 = 0.5532): -2.161e-07 ± 3.2e-09 m3/mol
excess molar volume ([1]; x1 = 0.5913): -2.059e-07 ± 3.2e-09 m3/mol
excess molar volume ([1]; x1 = 0.6379): -1.906e-07 ± 3.2e-09 m3/mol
excess molar volume ([1]; x1 = 0.6743): -1.761e-07 ± 3.2e-09 m3/mol
excess molar volume ([1]; x1 = 0.7191): -1.593e-07 ± 3.2e-09 m3/mol
excess molar volume ([1]; x1 = 0.7691): -1.359e-07 ± 3.1e-09 m3/mol
excess molar volume ([1]; x1 = 0.8211): -1.109e-07 ± 3.1e-09 m3/mol
excess molar volume ([1]; x1 = 0.8768): -7.86e-08 ± 3.1e-09 m3/mol
excess molar volume ([1]; x1 = 0.9287): -4.6e-08 ± 3e-09 m3/mol
excess molar volume ([1]; x1 = 0.962): -2.56e-08 ± 3e-09 m3/mol

CO [methanol]
mass density [2]: 772.2 ± 3.4 kg/m3
refractive index [3]: 1.32645 ± 0.0012

CC(=O)N(C)C [N,N-dimethylethanamide] + CO
excess molar volume ([1]; x1 = 0.0166): -5.83e-08 ± 3.1e-09 m3/mol
excess molar volume ([1]; x1 = 0.0295): -9.34e-08 ± 3.1e-09 m3/mol
excess molar volume ([1]; x1 = 0.0344): -1.106e-07 ± 3.2e-09 m3/mol
excess molar volume ([1]; x1 = 0.0508): -1.501e-07 ± 3.2e-09 m3/mol
excess molar volume ([1]; x1 = 0.0623): -1.832e-07 ± 3.2e-09 m3/mol
excess molar volume ([1]; x1 = 0.0717): -2.034e-07 ± 3.2e-09 m3/mol
excess molar volume ([1]; x1 = 0.0953): -2.561e-07 ± 3.3e-09 m3/mol
excess molar volume ([1]; x1 = 0.0979): -2.653e-07 ± 3.3e-09 m3/mol
excess molar volume ([1]; x1 = 0.1263): -3.178e-07 ± 3.3e-09 m3/mol
excess molar volume ([1]; x1 = 0.1366): -3.395e-07 ± 3.4e-09 m3/mol
excess molar volume ([1]; x1 = 0.169): -3.878e-07 ± 3.4e-09 m3/mol
excess molar volume ([1]; x1 = 0.1692): -3.91e-07 ± 3.4e-09 m3/mol
excess molar volume ([1]; x1 = 0.1997): -4.315e-07 ± 3.4e-09 m3/mol
excess molar volume ([1]; x1 = 0.2025): -4.324e-07 ± 3.4e-09 m3/mol
excess molar volume ([1]; x1 = 0.228): -4.611e-07 ± 3.5e-09 m3/mol
excess molar volume ([1]; x1 = 0.2317): -4.661e-07 ± 3.5e-09 m3/mol
excess molar volume ([1]; x1 = 0.2533): -4.845e-07 ± 3.5e-09 m3/mol
excess molar volume ([1]; x1 = 0.2599): -4.913e-07 ± 3.5e-09 m3/mol
excess molar volume ([1]; x1 = 0.2804): -5.069e-07 ± 3.5e-09 m3/mol
excess molar volume ([1]; x1 = 0.2837): -5.077e-07 ± 3.5e-09 m3/mol
excess molar volume ([1]; x1 = 0.3079): -5.225e-07 ± 3.6e-09 m3/mol
excess molar volume ([1]; x1 = 0.308): -5.222e-07 ± 3.6e-09 m3/mol
excess molar volume ([1]; x1 = 0.3093): -5.264e-07 ± 3.6e-09 m3/mol
excess molar volume ([1]; x1 = 0.3243): -5.305e-07 ± 3.5e-09 m3/mol
excess molar volume ([1]; x1 = 0.3406): -5.399e-07 ± 3.5e-09 m3/mol
excess molar volume ([1]; x1 = 0.3748): -5.488e-07 ± 3.5e-09 m3/mol
excess molar volume ([1]; x1 = 0.4031): -5.518e-07 ± 3.6e-09 m3/mol
excess molar volume ([1]; x1 = 0.4372): -5.508e-07 ± 3.6e-09 m3/mol
excess molar volume ([1]; x1 = 0.4807): -5.416e-07 ± 3.5e-09 m3/mol
excess molar volume ([1]; x1 = 0.5265): -5.238e-07 ± 3.5e-09 m3/mol
excess molar volume ([1]; x1 = 0.5817): -4.921e-07 ± 3.5e-09 m3/mol
excess molar volume ([1]; x1 = 0.5988): -4.766e-07 ± 3.5e-09 m3/mol
excess molar volume ([1]; x1 = 0.6131): -4.66e-07 ± 3.5e-09 m3/mol
excess molar volume ([1]; x1 = 0.6318): -4.516e-07 ± 3.5e-09 m3/mol
excess molar volume ([1]; x1 = 0.6362): -4.516e-07 ± 3.5e-09 m3/mol
excess molar volume ([1]; x1 = 0.6489): -4.37e-07 ± 3.4e-09 m3/mol
excess molar volume ([1]; x1 = 0.6633): -4.244e-07 ± 3.4e-09 m3/mol
excess molar volume ([1]; x1 = 0.6702): -4.188e-07 ± 3.4e-09 m3/mol
excess molar volume ([1]; x1 = 0.6938): -3.98e-07 ± 3.4e-09 m3/mol
excess molar volume ([1]; x1 = 0.6957): -3.938e-07 ± 3.4e-09 m3/mol
excess molar volume ([1]; x1 = 0.6975): -3.923e-07 ± 3.4e-09 m3/mol
excess molar volume ([1]; x1 = 0.7225): -3.669e-07 ± 3.4e-09 m3/mol
excess molar volume ([1]; x1 = 0.7286): -3.606e-07 ± 3.4e-09 m3/mol
excess molar volume ([1]; x1 = 0.7471): -3.413e-07 ± 3.3e-09 m3/mol
excess molar volume ([1]; x1 = 0.752): -3.354e-07 ± 3.3e-09 m3/mol
excess molar volume ([1]; x1 = 0.7584): -3.295e-07 ± 3.3e-09 m3/mol
excess molar volume ([1]; x1 = 0.7813): -3.022e-07 ± 3.3e-09 m3/mol
excess molar volume ([1]; x1 = 0.7951): -2.867e-07 ± 3.3e-09 m3/mol
excess molar volume ([1]; x1 = 0.8055): -2.731e-07 ± 3.3e-09 m3/mol
excess molar volume ([1]; x1 = 0.8278): -2.456e-07 ± 3.2e-09 m3/mol
excess molar volume ([1]; x1 = 0.83): -2.444e-07 ± 3.2e-09 m3/mol
excess molar volume ([1]; x1 = 0.8417): -2.295e-07 ± 3.2e-09 m3/mol
excess molar volume ([1]; x1 = 0.8584): -2.065e-07 ± 3.2e-09 m3/mol
excess molar volume ([1]; x1 = 0.8746): -1.858e-07 ± 3.2e-09 m3/mol
excess molar volume ([1]; x1 = 0.8862): -1.705e-07 ± 3.2e-09 m3/mol
excess molar volume ([1]; x1 = 0.9051): -1.481e-07 ± 3.2e-09 m3/mol
excess molar volume ([1]; x1 = 0.9081): -1.406e-07 ± 3.2e-09 m3/mol
excess molar volume ([1]; x1 = 0.9134): -1.337e-07 ± 3.1e-09 m3/mol
excess molar volume ([1]; x1 = 0.9384): -9.87e-08 ± 3.1e-09 m3/mol
excess molar volume ([1]; x1 = 0.943): -9.15e-08 ± 3.1e-09 m3/mol
excess molar volume ([1]; x1 = 0.9698): -5.42e-08 ± 3.1e-09 m3/mol
excess molar volume ([1]; x1 = 0.9711): -5.33e-08 ± 3.1e-09 m3/mol

CCO [ethanol]
mass density [2]: 772.2 ± 3.4 kg/m3
refractive index [3]: 1.3592 ± 0.0012

CC(=O)N(C)C [N,N-dimethylethanamide]
mass density [2]: 922.4 ± 0.9 kg/m3
refractive index [3]: 1.43556 ± 0.0007
